Assay results reported in the supplement of paper PMC10307832.

Columns and labels:
Assay in all cases: relative viability (nuclei count vs DMSO), 5 days (fraction); higher = more cells survive
[1] = compound: CC1=CC=C(C=C1)C(=O)CN2C3=C(CCCC3)SC2=N [Pifithrin_alpha] + NC(=O)Nc1cc(-c2cccc(F)c2)sc1C(=O)N[C@H]1CCCNC1 [AZD7762] (partner 0.2 µM)
Summary of the method: (§1)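 One day after seeding in 1536-well plates, lung cancer cell lines were dosed by pin tool. Dosing was either single-drug or a fixed anchor-drug dose plus five library-drug doses (not always all listed) in √10 steps. After 5 days, nuclei were stained in one fix-and-stain step and counted on 4× images, and relative viability is the nuclei count of treated wells over that of vehicle wells, given as the median of duplicate plates.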

[2] = compound: CC1=CC=C(C=C1)C(=O)CN2C3=C(CCCC3)SC2=N [Pifithrin_alpha] + Nc1nc2[nH]cc(CCc3ccc(C(=O)N[C@@H](CCC(=O)O)C(=O)O)cc3)c2c(=O)[nH]1 [Pemetrexed] (partner 0.2 µM)
Summary of the method: as §1

[3] = compound: CC1=CC=C(C=C1)C(=O)CN2C3=C(CCCC3)SC2=N [Pifithrin_alpha] + Nc1ncn([C@H]2C[C@H](O)[C@@H](CO)O2)c(=O)n1 [Decitabine] (partner 2 µM)
Summary of the method: as §1

Bemcentinib + Trametinib = compound: Nc1nc(Nc2ccc3c(c2)CC[C@@H](N2CCCC2)CC3)nn1-c1cc2c(nn1)-c1ccccc1CCC2 [Bemcentinib] + CC(=O)Nc1cccc(-n2c(=O)n(C3CC3)c(=O)c3c(Nc4ccc(I)cc4F)n(C)c(=O)c(C)c32)c1 [Trametinib] (partner 0.02 µM)
Summary of the method: as §1

Cell Line	relative viability ([1]; first compound 1 µM)	relative viability ([1]; first compound 3.162 µM)	relative viability ([1]; first compound 10 µM)	relative viability ([1]; first compound 31.62 µM)	relative viability ([1]; first compound 100 µM)	relative viability ([2]; first compound 1 µM)	relative viability ([2]; first compound 3.162 µM)	relative viability ([2]; first compound 10 µM)	relative viability ([2]; first compound 31.62 µM)	relative viability ([2]; first compound 100 µM)	relative viability ([3]; first compound 1 µM)	relative viability ([3]; first compound 3.162 µM)	relative viability ([3]; first compound 10 µM)	relative viability ([3]; first compound 31.62 µM)	relative viability ([3]; first compound 100 µM)	relative viability (Bemcentinib + Trametinib; first compound 0.04 µM)	relative viability (Bemcentinib + Trametinib; first compound 0.1265 µM)	relative viability (Bemcentinib + Trametinib; first compound 0.4 µM)	relative viability (Bemcentinib + Trametinib; first compound 1.265 µM)	relative viability (Bemcentinib + Trametinib; first compound 4 µM)
201T	0.669	0.773	0.781	0.461	0.627	0.315	0.337	0.296	0.29	0.295	0.866	0.866	0.815	0.701	0.74	0.731	0.778	0.744	0.743	0.734
A549												0.249	0.215	0.207	0.327					
A-427	0.692	0.675	0.666	0.644	0.672	0.827	1	0.87	0.759	0.905	0.485	0.582	0.543	0.485	0.531	0.711	0.696	0.812	0.773	0.668
ABC-1		0.977	0.8	0.726	0.679							1.02	1.03	1	0.803					
BEN	0.608	0.753	0.722	0.533	0.656	0.523	0.741	0.741	0.746	0.629	0.505	0.771	0.742	0.623	0.639	1.01	1.18	1.21	1.04	1.03
CAL-12T	0.548	0.658	0.62	0.401	0.476	1.31	1.29	1.1		1.19						0.347	0.321	0.302	0.339	0.372
COR-L23						0.19	0.201	0.196		0.181	0.412	0.399	0.404		0.328	0.569	0.696	0.66	0.641	0.658
COR-L 105						1.13	1	0.951	0.926	1.03	0.652	0.622	0.62	0.646	0.581	0.453	0.48	0.458	0.39	0.377
ChaGo-K-1	0.905	0.947	0.872	0.683	0.866	0.251	0.252	0.27	0.263	0.249	0.491	0.533	0.515	0.407	0.496	0.911	0.945	0.939	0.877	0.902
EKVX	0.685	0.562	0.592	0.463	0.424	0.514	0.352	0.37	0.266	0.316	0.343	0.553	0.319	0.32	0.368	0.32	0.372	0.351	0.491	0.34
EMC-BAC-2	1.09	1.09	0.954	0.82	1.04	0.443	0.435	0.416	0.383	0.418		0.95		0.84	0.972	0.874	0.896	0.873	0.897	0.967
EPLC-272H		0.233	0.212	0.196	0.215	0.444	0.3	0.249	0.295	0.382		0.268	0.39	0.375	0.358	0.268	0.287	0.329	0.289	0.295
H3255	0.716	0.95	0.801	0.683	0.637	0.507	0.533	0.537	0.532	0.505	0.581	0.66	0.646	0.389	0.572		0.749	0.696	0.674	0.706
HARA	0.3	0.329	0.219	0.23	0.209	0.234	0.232	0.266	0.248	0.23	0.474	0.622	0.628	0.514	0.472	0.769	0.83	0.69	0.67	0.96
HCC-15	1.28	1.27	1.03	1.1	1.3	0.225	0.206	0.207	0.206	0.209	0.657	0.738	0.573	0.531	0.456	0.389	0.365	0.44	0.368	0.42
HCC-44	0.91	0.977	0.985	0.869	0.888	0.56	0.584	0.667	0.519	0.574	0.859	0.919	0.812	0.779	0.857	1.11	1.13	1.06	1.18	1.18
HCC-78		0.509	0.566	0.54	0.526		0.937	0.941	0.901	0.944		0.623	0.673	0.623	0.56	0.735	0.746	0.936	0.809	0.801
HCC-366	0.23	0.183	0.183		0.174	0.158	0.154	0.139		0.133	0.308	0.326	0.403		0.297	0.368	0.428	0.407	0.409	0.419
HCC-827	0.159	0.177	0.189	0.189	0.154	0.251	0.256	0.27	0.239	0.205	0.136	0.357	0.31	0.334	0.345	0.545	0.548	0.534	0.599	0.586
